These results are taken from patent US10220033B2, “Substituted benzoxazepine for cancer therapy” (University of Cape Town, priority 2014, dated 2019).

This assay relates to non-cancer fibroblast cells. As to the kind of experiment: MTT cell viability, summary statement for non-cancer cells. The class given is cell-based. Here is the method: Cells were plated in 96-well plates and treated with varying concentrations of a test compound for 48 hours, after which MTT dye, 3-(4,5-dimethylthiazol-2-yl)-2,5-diphenyltetrazolium bromide (Sigma), was added, and crystals solubilised 4 hours later using Solubilisation Reagent (10% SLS in 0.01 M HCl). Absorbencies were measured at 595 nm the following day using a BioTek microplate spectrophotometer (Winooski, Vt., USA) and IC50 curves were generated using GraphPad Prism.

As usually defined, the IC50 is the concentration needed to halve the response being measured. A high value points to lower potency. In turn, `CN(C)CCCn1c(N)c(-c2nc3ccccc3[nH]2)c2nc3ccccc3nc21` [Compound A, 3-(1H-benzimidazol-2-yl)-1-(3-dimethylaminopropyl)pyrrolo[5,4-b]quinoxalin-2-amine] registered a concentration for half-maximal inhibition (IC50) of 20 to 30 µM.
